Measurements published in ChEMBL document CHEMBL1909046, “DrugMatrix in vitro pharmacology data”.

Legend:
[1] = DRUGMATRIX: Glutamate, AMPA radioligand binding (ligand: [3H] AMPA); type: cell membranes, Rattus norvegicus, Wistar, Cerebral cortex, Membrane; settings: Not Active = under 50% inhibition at 10 µM
[2] = target: T1, Nitric oxide synthase, inducible (Mus musculus, UniProt P29477); parameters: species or system Escherichia coli;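 further: inhibition of iNOS enzyme activity measured with L-arginine as substrate; in other assays of this panel Not Active means under 50% inhibition at 10 µM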
T1 sequence (P29477 whole entry): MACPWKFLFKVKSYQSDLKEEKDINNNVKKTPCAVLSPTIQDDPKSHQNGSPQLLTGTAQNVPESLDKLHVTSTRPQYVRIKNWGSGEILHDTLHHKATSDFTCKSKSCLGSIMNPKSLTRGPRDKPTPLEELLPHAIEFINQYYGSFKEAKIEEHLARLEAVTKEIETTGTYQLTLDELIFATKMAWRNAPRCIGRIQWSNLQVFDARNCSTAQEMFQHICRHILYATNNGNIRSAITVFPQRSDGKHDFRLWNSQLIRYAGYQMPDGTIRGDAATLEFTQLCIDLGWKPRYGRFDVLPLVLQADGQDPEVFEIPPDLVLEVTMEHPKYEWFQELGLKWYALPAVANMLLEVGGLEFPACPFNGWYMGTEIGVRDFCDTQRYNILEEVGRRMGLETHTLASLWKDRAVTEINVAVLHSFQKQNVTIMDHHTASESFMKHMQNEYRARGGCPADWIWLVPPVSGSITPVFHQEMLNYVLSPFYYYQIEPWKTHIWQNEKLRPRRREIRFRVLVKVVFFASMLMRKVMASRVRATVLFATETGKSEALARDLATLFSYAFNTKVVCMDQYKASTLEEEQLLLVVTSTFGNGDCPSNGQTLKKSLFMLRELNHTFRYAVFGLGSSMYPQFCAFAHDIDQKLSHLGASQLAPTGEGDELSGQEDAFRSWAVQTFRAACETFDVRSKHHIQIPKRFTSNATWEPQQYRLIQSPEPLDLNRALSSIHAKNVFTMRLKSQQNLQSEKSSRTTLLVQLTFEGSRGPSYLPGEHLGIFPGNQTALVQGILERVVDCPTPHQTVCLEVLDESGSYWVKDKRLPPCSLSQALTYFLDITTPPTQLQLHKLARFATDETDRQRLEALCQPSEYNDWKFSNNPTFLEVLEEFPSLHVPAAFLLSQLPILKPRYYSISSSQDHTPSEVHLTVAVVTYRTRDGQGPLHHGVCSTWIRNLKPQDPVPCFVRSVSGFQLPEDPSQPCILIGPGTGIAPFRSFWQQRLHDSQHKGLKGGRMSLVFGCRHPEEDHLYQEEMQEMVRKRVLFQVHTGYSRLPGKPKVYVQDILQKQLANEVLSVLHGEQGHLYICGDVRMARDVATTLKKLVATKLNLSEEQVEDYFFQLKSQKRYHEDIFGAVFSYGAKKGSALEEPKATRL

[3] = target: Mitogen-activated protein kinase 3 (Homo sapiens, UniProt P27361); assay: DRUGMATRIX: Protein Serine/Threonine Kinase, ERK1 enzyme inhibition (substrate: Myelin Basic Protein); parameters: species or system Escherichia coli; settings: Not Active = under 50% inhibition at 10 µM
[4] = target: T2, 3-hydroxy-3-methylglutaryl-coenzyme A reductase (Homo sapiens, UniProt P04035); parameters: species or system Escherichia coli;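 further: enzyme inhibition assay of HMG-CoA reductase using radiolabeled [14C]HMG-CoA as substrate; in other assays of this panel Not Active means under 50% inhibition at 10 µM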
T2 sequence (P04035 whole entry): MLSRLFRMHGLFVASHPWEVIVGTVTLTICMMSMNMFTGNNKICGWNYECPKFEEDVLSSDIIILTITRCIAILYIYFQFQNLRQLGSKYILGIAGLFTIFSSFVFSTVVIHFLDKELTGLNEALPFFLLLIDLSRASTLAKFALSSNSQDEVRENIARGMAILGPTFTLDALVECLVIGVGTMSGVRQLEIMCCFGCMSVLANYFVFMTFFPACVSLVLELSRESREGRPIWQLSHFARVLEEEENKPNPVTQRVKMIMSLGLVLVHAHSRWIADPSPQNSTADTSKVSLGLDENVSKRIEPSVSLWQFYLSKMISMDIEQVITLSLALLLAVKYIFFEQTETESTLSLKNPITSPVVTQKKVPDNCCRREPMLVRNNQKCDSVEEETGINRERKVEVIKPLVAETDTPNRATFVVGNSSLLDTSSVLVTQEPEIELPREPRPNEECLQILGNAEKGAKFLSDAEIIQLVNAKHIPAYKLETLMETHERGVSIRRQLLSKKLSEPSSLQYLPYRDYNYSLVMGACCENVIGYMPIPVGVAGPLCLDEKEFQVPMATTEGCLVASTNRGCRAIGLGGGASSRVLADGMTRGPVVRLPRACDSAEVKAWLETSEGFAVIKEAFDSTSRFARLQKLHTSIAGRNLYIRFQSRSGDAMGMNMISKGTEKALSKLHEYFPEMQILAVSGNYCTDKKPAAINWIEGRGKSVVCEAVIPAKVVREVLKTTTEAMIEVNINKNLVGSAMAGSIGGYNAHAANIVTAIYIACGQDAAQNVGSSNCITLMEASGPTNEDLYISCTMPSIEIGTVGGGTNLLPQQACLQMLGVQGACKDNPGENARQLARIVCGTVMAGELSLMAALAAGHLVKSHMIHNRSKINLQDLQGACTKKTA

[5] = target: T3, 5-hydroxytryptamine receptor 1A (Rattus norvegicus, UniProt P19327); type: cell membranes, CHO-K1, Membrane; settings: cho-k1; further: in other assays of this panel Not Active means under 50% inhibition at 10 µM
T3 sequence (P19327 whole entry): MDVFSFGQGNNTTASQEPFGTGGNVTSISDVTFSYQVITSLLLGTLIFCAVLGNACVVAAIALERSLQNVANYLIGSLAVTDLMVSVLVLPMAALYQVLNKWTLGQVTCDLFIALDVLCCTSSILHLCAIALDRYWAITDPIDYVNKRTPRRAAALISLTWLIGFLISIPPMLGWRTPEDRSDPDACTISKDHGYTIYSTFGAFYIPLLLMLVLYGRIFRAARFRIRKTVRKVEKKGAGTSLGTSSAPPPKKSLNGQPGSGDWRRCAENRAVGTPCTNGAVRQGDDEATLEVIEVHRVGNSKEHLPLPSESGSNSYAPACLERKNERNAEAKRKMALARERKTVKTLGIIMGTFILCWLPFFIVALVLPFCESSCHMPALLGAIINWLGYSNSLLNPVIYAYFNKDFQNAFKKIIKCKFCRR

[6] = DRUGMATRIX: Phosphodiesterase PDE4 enzyme inhibition (substrate: [3H]cAMP + cAMP); settings: u-937; Not Active = under 50% inhibition at 10 µM
[7] = DRUGMATRIX: Sodium/nucleoside co-transporter radioligand binding (ligand: nitrobenzylthioinosine); type: cell membranes, Cavia porcellus, Dunkin-Hartley, Cerebral cortex, Membrane; settings: Not Active = under 50% inhibition at 10 µM

Chain of Mitogen-activated protein kinase 3 (P27361 whole entry): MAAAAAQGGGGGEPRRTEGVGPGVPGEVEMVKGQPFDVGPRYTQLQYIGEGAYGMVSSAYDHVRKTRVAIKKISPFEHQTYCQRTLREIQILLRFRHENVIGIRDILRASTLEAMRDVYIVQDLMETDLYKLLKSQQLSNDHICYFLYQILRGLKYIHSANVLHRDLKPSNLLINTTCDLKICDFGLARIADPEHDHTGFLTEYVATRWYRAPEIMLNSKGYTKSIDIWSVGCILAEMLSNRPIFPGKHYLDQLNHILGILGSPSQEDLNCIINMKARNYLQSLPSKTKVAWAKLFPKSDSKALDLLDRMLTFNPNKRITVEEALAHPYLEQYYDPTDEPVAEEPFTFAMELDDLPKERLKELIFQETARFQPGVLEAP

CS(=O)(=O)c1ccc([C@@H](O)[C@@H](CO)NC(=O)C(Cl)Cl)cc1 [THIAMPHENICOL]
Not Active: IC50 [1] | Ki [1] | IC50 [2] | IC50 [3] | IC50 [4] | IC50 [5] | IC50 [6] | Ki [6] | IC50 [7] | Ki [7]

O=C(Oc1ccccc1C(=O)O)c1ccccc1O [SALSALATE]
Not Active: IC50 [1] | Ki [1] | IC50 [2] | IC50 [3] | IC50 [4] | IC50 [5] | IC50 [6] | Ki [6] | IC50 [7] | Ki [7]

CC(C)NCC(O)c1ccc(NS(C)(=O)=O)cc1 (centres undefined) [SOTALOL]
Not Active: IC50 [1] | Ki [1] | IC50 [2] | IC50 [3] | IC50 [4] | IC50 [5] | IC50 [6] | Ki [6] | IC50 [7] | Ki [7]

MANGANESE CHLORIDE ANHYDROUS
Not Active: IC50 [1] | Ki [1] | IC50 [2] | Ki [2] | IC50 [3] | Ki [3] | IC50 [4] | Ki [4] | IC50 [5] | Ki [5] | IC50 [6] | Ki [6] | IC50 [7] | Ki [7]

O.O.O.O.O.O.[Cl-].[Cl-].[Sr+2] [STRONTIUM CHLORIDE HEXAHYDRATE]
Not Active: IC50 [1] | Ki [1] | IC50 [2] | IC50 [3] | IC50 [4] | IC50 [5] | IC50 [6] | Ki [6] | IC50 [7] | Ki [7]

Nc1cc(N2CCCCC2)nc(N)[n+]1[O-] [MINOXIDIL]
Not Active: IC50 [1] | Ki [1] | IC50 [2] | IC50 [3] | IC50 [4] | IC50 [5] | IC50 [6] | Ki [6] | IC50 [7] | Ki [7]

CO[C@H]1/C=C/O[C@@]2(C)Oc3c(C)c(O)c4c(O)c(c(/C=N/N5CCN(C6CCCC6)CC5)c(O)c4c3C2=O)NC(=O)/C(C)=C\C=C\[C@H](C)[C@H](O)[C@@H](C)[C@@H](O)[C@@H](C)[C@H](OC(C)=O)[C@@H]1C [RIFAPENTINE]
Not Active: IC50 [1] | Ki [1] | IC50 [2] | IC50 [3] | IC50 [4] | IC50 [5] | IC50 [6] | Ki [6] | IC50 [7] | Ki [7]

Cc1cccc(C)c1OCC(C)N (centres undefined) [MEXILETINE]
Not Active: IC50 [1] | Ki [1] | IC50 [2] | IC50 [3] | IC50 [4] | IC50 [5] | IC50 [6] | Ki [6] | IC50 [7] | Ki [7]
